The values that follow are results of earlier work, collected in patent US9974767B2, “Statins in the treatment of muscular dystrophies and myopathies” (University of Washington, priority 2014, dated 2018).

Structures are written as SMILES.

The conditions of this data set: food intake; cited from earlier work.
Take `COCc1c(C(C)C)nc(C(C)C)c(/C=C/[C@@H](O)C[C@@H](O)CC(=O)O)c1-c1ccc(F)cc1` [cerivastatin]: the “absorption when consumed with food” value was “not affected”.
For the compound `CC(C)n1c(/C=C/C(O)CC(O)CC(=O)O)c(-c2ccc(F)cc2)c2ccccc21` (centres unmarked) [fluvastatin], the “absorption when consumed with food” value was “reduced absorption”.
For the compound `CC[C@H](C)C(=O)O[C@H]1C[C@@H](C)C=C2C=C[C@H](C)[C@H](CC[C@@H]3C[C@@H](O)CC(=O)O3)[C@H]21` [lovastatin], the “absorption when consumed with food” value is given as “more efficiently absorbed”.
For `CC[C@H](C)C(=O)O[C@H]1C[C@H](O)C=C2C=C[C@H](C)[C@H](CC[C@@H](O)C[C@@H](O)CC(=O)O)[C@H]21` [pravastatin], the “absorption when consumed with food” value was “reduced absorption”.
With `CC(C)c1nc(N(C)S(C)(=O)=O)nc(-c2ccc(F)cc2)c1/C=C/[C@@H](O)C[C@@H](O)CC(=O)O` [rosuvastatin], the “absorption when consumed with food” value is listed as “not affected”.
